Data on two molecules can be found in patent publication US8729128B2, “Lipoxin A4 protection for cornea endothelial cells” (Board of Supervisors of Louisiana State University And …, priority 2007, dated 2014).

Common to all, as to format: cell-based
Test [1] relates to Rabbit corneal endothelial cells (RCEC). Description: Proliferation of rabbit corneal endothelial cells (Ki-67 antibody staining). Conditions: rabbit CEC, 10 nM to 200 nM, DMEM/F12 0.5% FBS, 24 hours. From the text:
(§1) Rabbit corneal endothelial cells (RCEC) and human corneal endothelial cells along with the Decemet's membrane were isolated from normal eyes (National Disease Research Interchange (NDRI), Philadelphia, Pa.), and the cells were suspended in Dulbecco's Modified Eagle Medium/Nutrient Mixture F-12 (DMEM/F12; GIBCO®, Grand Island, N.Y.) supplemented with 15% fetal bovine serum (FBS; GIBCO®), and seeded in 12-well plates. Cell phenotype was identified by using the endothelial cell marker anti-ZO-1 antibody (anti-zonula occludins-1 antibody) (Zymed Laboratories, Inc., San Francisco, Calif.). The localization of the lipoxin A4 (LXA4) receptor was detected with the polyclonal antibody FPRL1 (formyl peptide receptor-like 1; sc-13193, Santa Cruz Biotechnology, Inc., Santa Cruz, Calif.) (FIG. 1). […] The same was found with human endothelial cells. (Data not shown) This is the first time such receptor has been reported in cornea endothelial cells.
Proliferation of cornea endothelial cells was evaluated with anti-Ki-67 antibody (Zymed Laboratories, Inc., San Francisco, Calif.). Rabbit CEC cells were grown at 60-70% confluence, starved for 24 hours, and then treated with 15-epimer-lipoxin A4 (Calbiochem, Madison, Wis.) at different concentrations from 10 nM to 200 nM in DMEM/F12 containing 0.5% FBS for 24 hours. […] In addition, a similar experiment was conducted using lipoxin A4.

For test [2], the system named is human corneal endothelial cells. Description: Cell migration in a wound of human corneal endothelial cells. Conditions: human CEC, 100 nM, at 48 hours, p<0.05. On the procedure: (§2) Human eyeballs were obtained from NDRI (National Disease Research Interchange, Philadelphia, Pa.) and shipped to the laboratory on ice. The corneas were excised along the sclerocorneal rim, and the endothelia together with the Decemet's membrane were removed with tooth-free fine forceps under a dissection microscope. Pieces of the endothelia were seeded in DMEM/F12 (GIBCO®, Grand Island, N.Y.) supplemented with 15% FBS in 12-well plates. Cell phenotypes were identified and confirmed by using the endothelial cell marker anti-ZO-1 antibody (Zymed Laboratories, Inc., San Francisco, Calif.). […] This method of cell culture was used to establish cell cultures from several human eyeballs.
A secondary passage of human corneal endothelial cells derived from a donor was obtained as described above in Example 4. The cells were grown to 70% confluence in 24-well plate, and then starved for 24 hours. […] Wound healing was determined by phase contrast images collected by a camera attached to the microscope, and the result shown in FIG. 6B. The width of wound was calculated using Metavue Image software. The degree of cell migration was quantified by measuring the width of the wounded area at 24 and 48 hours, and the data shown in FIG. 6A. […]

In test [3] the test system is Rabbit corneal endothelial cells (RCEC). As to the kind of experiment: In vitro wound closure in confluent rabbit corneal endothelial cells. The settings on record: 10 nM and 100 nM, 24 hours.
Source text: as §1
To measure in vitro wound closure, 12-day cultures of completely confluent RCEC in 12-well plates were wounded by linear scraping with a sterile plastic tip in the center of the well. Cells were incubated for 24 hours in DMEM/F12 with or without 15-epimer lipoxin A4 at 10 nM and 100 nM concentrations. The width of wound was calculated using Metavue Image software. […]

The test system of test [4] is human corneal endothelial cells. Description: Proliferation of cultured human corneal endothelial cells (Ki-67 immunofluorescence). Conditions: human CEC, second passage, 100 nM, 24 hours. As to the method:
as §2
A secondary passage of human corneal endothelial cells derived from a donor was obtained as described above in Example 4. The cells were grown to 70% confluence in 24-well plate, and then starved for 24 hours. The starved cells were then incubated in DMEM/F12 containing 0.5% FBS with or without 15-epimer LxA4 (100 nM; from Calbiochem, Madison, Wis.) for 24 hours. […] Based on the rabbit studies above, it is believed that lipoxin A4 and its other analogs would show similar results as the 15-epimer lipoxin A4 used in these experiments.

For `CCCCC[C@@H](O)/C=C/C=C\C=C\C=C\[C@@H](O)[C@@H](O)CCCC(=O)O` [15-epimer lipoxin A4], the “number of cells with Ki-67 staining (proliferation)” value in test [1] is listed as “increases with the concentration”. Moreover, the “cell migration (width of the wounded area)” value in test [2] is recorded as “significant increase in cell migration”. The “wound healing (width of wound)” value in test [3] was “promoted wound healing”. For the same molecule, the “cell proliferation (percentage of Ki-67-positive cells versus total cells)” value in test [4] is reported as “significant increase”.

On to `CCCCC[C@H](O)/C=C/C=C\C=C\C=C\[C@@H](O)[C@@H](O)CCCC(=O)O` [lipoxin A4], for which, in test [1], the “number of cells with Ki-67 staining (proliferation)” value is “the same, both qualitatively and quantitatively”. Besides, the “wound healing (width of wound)” value in test [3] is “the same, both qualitatively and quantitatively”.
